In experiment [1] the test system is BALB/3T3. In words: Stimulation of BALB/c mouse cloned 3T3/A31 cells growth at 0.01 to 1 ug/mL. It is filed as functional.
Experiment [2] deals with BALB/3T3. In words: (§1) Growth inhibition of BALB/c mouse cloned 3T3/A31 cells after 72 hrs by nigrosin assay. The class given is functional, cell-based.
Experiment [3] is described as follows: as §1. The class given is functional, cell-based. Conditions: BALB/3T3, 72 h.
In experiment [4] the test system is BALB/3T3. In words: Growth inhibition of BALB/c mouse cloned 3T3/A31 cells at 100 ug/mL after 72 hrs by nigrosin assay. It is filed as functional, cell-based.
Experiment [5] concerns BALB/3T3. In words: Growth inhibition of BALB/c mouse cloned 3T3/A31 cells at 10 to 100 ug/mL after 72 hrs by nigrosin assay. It is filed as functional, cell-based.
For experiment [6], the system named is BALB/3T3. In words: Cytotoxicity against BALB/c mouse cloned 3T3/A31 cells at 1 to 100 ug/mL after 72 hrs by nigrosin assay. It is filed as functional, cell-based.
In experiment [7] the test system is BALB/3T3. In words: Stimulation of BALB/c mouse cloned 3T3/A31 cells growth at 0.01 to 0.1 ug/mL. The class given is functional.
A short description of experiment [8]: Stimulation of BALB/c mouse cloned 3T3/A31 cells proliferation at 0.01 ug/mL. The class given is functional, BALB/3T3.
The test system of experiment [9] is BALB/3T3. In words: Stimulation of BALB/c mouse cloned 3T3/A31 cells proliferation at 0.01 to 10 ug/mL. It is filed as functional, cell-based.
Experiment [10] relates to BALB/3T3. In words: Growth inhibition of BALB/c mouse cloned 3T3/A31 cells at 0.01 to 100 ug/mL after 72 hrs by nigrosin assay. It is filed as functional, cell-based.

Consider 14 molecules from ChEMBL document CHEMBL1141813, “Activities of plant-derived phenols in a fibroblast cell culture model” (J Nat Prod, 1999).

The source made the active and inactive calls. The rule behind the calls is not given here. Where only a bound is given, the exact number is not on record here.

The IC50 is the concentration that gives 50% inhibition. Read a low IC50 as greater potency in that assay. As to `C[C@@H]1O[C@@H](Oc2c(-c3ccc(O)c(O)c3)oc3cc(O)cc(O)c3c2=O)[C@H](O)[C@H](O)[C@H]1O` [QUERCITRIN], the Activity in experiment [1] is 4.9%; in experiment [2], “Dose-dependent effect”. Also, the IC50 in experiment [3] is above 223 µM. Moreover, in experiment [4], the result was Active.
Take `O=C(O)/C=C/c1ccccc1` [CINNAMIC ACID]: the Activity entry in [2] was “Dose-dependent effect”. In [3], this molecule displayed an IC50 of 671 µM. In addition, the result in experiment [5] was Active.
For `COc1ccc(/C=C/C(=O)O)cc1OC` [O,O'-DIMETHYLCAFFEIC ACID], in that order: “Dose-dependent effect”, above 480 µM and “Active”.
Turning to `O=c1cc(-c2ccccc2)oc2ccccc12` [FLAVONE], in experiment [2], the Activity entry was “Dose-dependent effect”. In experiment [3], this molecule displayed a concentration for half-maximal inhibition (IC50) of 287 µM. For the same molecule, the result in experiment [6] was Active.
For `Oc1cc(O)c2c(c1)OC(c1ccc(O)c(O)c1)C(O)C2` (configuration not stated) [CATECHIN], the Activity entry in [2] was “Dose-dependent effect”. In experiment [3], this molecule registered an IC50 above 344 µM. For the same molecule, the result in experiment [5] was Active.
In the case of `O=c1c(O)c(-c2ccc(O)c(O)c2)oc2cc(O)cc(O)c12` [QUERCETIN], the values for the Activity entry in [2] and in experiment [7] were “Dose-dependent effect” and 5.3%, respectively. Also, the IC50 in experiment [3] stood at 217 µM. Besides, the result in experiment [5] was Active.
As for `C[C@@H]1O[C@@H](OC[C@H]2O[C@@H](Oc3c(-c4ccc(O)c(O)c4)oc4cc(O)cc(O)c4c3=O)[C@H](O)[C@@H](O)[C@@H]2O)[C@H](O)[C@H](O)[C@H]1O` [RUTIN], the values for the Activity in [8] and in [2] were 30.4% and “Dose-dependent effect”, respectively. In experiment [9], the result was Active. In experiment [3], this molecule showed an IC50 above 164 µM.
For `O=C(/C=C/c1ccc(O)c(O)c1)O[C@@H]1C[C@](O)(C(=O)O)C[C@@H](O)[C@H]1O` [CHLOROGENIC ACID], the Activity result is “Dose-dependent effect” in experiment [2] and 5.3% in experiment [7]. This molecule showed an IC50 in [3] above 280 µM. Also, the result in experiment [4] was Active.
Turning to `O=C(O)/C=C/c1ccc(O)c(O)c1` [CAFFEIC ACID], the Activity result in [2] was “Dose-dependent effect”. In addition, the IC50 in [3] turned out to be 554 µM. Besides, in experiment [5], the result was Active.
As to `COc1ccc(-c2coc3cc(O)cc(O)c3c2=O)cc1` [BIOCHANIN], the Activity result in experiment [2] was “Dose-dependent effect”. Moreover, the IC50 in [3] is 220 µM. Besides, the outcome in experiment [5] was Active.
Turning to `O=c1cc(-c2ccccc2)oc2cc(O)cc(O)c12` [CHRYSIN], in experiment [2], the Activity result is “Dose-dependent effect”. In addition, in experiment [3], the 50% inhibitory concentration (IC50) worked out at 248 µM. Besides, the outcome in experiment [6] was Active.
As for `O=c1cc(-c2ccc(O)cc2)oc2cc(O)cc(O)c12` [APIGENIN], the Activity entry in [2] is “Dose-dependent effect”. The same molecule showed an IC50 in experiment [3] of 141 µM. Further, in experiment [10], the outcome was Active.
In the case of `O=c1cc(-c2ccccc2)oc2cc(O)c(O)c(O)c12` [BAICALEIN], the Activity entry in experiment [2] is “Dose-dependent effect”. This molecule also came in with a concentration for half-maximal inhibition (IC50) in [3] of 342 µM. Moreover, in experiment [5], the outcome was Active.
For `O=c1c(-c2ccc(O)cc2)coc2cc(O)cc(O)c12` [GENISTEIN], the Activity entry in experiment [2] was “Dose-dependent effect”; in experiment [7], 5.3%. This molecule also gave a concentration for half-maximal inhibition (IC50) in experiment [3] of 184 µM. Also, the outcome in experiment [6] was Active.
